From patent US11713293B2, “Substituted biaryl sulfonamides and the use thereof” (NovoMedix, LLC, priority 2012, dated 2023)

Assays:
[1] = system: triple negative breast cancer cell line MDA-MB-468; assay: Cell-based IC50 assay, adherent cells, MDA-MB-468; conditions: Homo sapiens, 72 hours, CellTiter 96 Aqueous One, metabolically active cells decreased by 50%
Experimental: (§1) In one embodiment, the IC50s of the compounds provided herein were determined in cell-based assays using adherent cells. In one embodiment, the activity of the compounds provided herein were determined in a cell-based assay using the triple negative breast cancer cell line MDA-MB-468. In one embodiment, the activity of the compounds provided herein were determined in a cell-based assay using the triple negative breast cancer cell line MDA-MB-231. In one embodiment, the activity of the compounds provided herein were determined in a cell-based assay using the triple negative breast cancer cell line 4T1.
(§2) In one embodiment, the cell-based assay may be carried out as provided herein. On day 0, cells were seeded at 20,000 cells per well in 100 μL of media into individual wells of a 96-well tissue culture plate. The next day, compounds were diluted to twice the desired final concentration and added in 100 μL of media for a final volume of 200 μL. Standard solutions for each compound were prepared at 1000× concentration in DMSO. The highest concentration was […]. Serial 1:1 dilutions were made from there for a 6- or 9-point curve (e.g., 20 mM, 10 mM, 5 mM, etc). Compounds were then diluted 1:500 in media, and 100 μL of the resulting solution was added to each well for a final dilution of 1:1000. Each concentration of compound was tested in triplicate. Cells were incubated at 37° C. with 5% CO2. After 72 hours, 20 μL of CellTiter 96 Aqueous One Solution Cell Proliferation Assay (Promega) was added to each well. Cells were placed back in the incubator, and the absorbance at 490 nm was read after 2-3 hours. The concentration of compound that decreased the number of metabolically active cells by 50% was determined and reported as the IC50. “Percent Viability” was determined by subtracting the average background value (media only) and expressed as a ratio to the average value obtained from cells treated with only DMSO.
The IC50s of the compounds provided herein and some reference compounds were determined in cell-based assay using triple negative breast cancer cell line MDA-MB-468.

[2] = system: triple negative breast cancer cell line MDA-MB-231; assay: Cell-based IC50 assay, adherent cells, MDA-MB-231; conditions: Homo sapiens, 72 hours, CellTiter 96 Aqueous One
Experimental: as §1, §2

[3] = system: triple negative breast cancer cell line 4T1; assay: Cell-based IC50 assay, adherent cells, 4T1; conditions: 72 hours, CellTiter 96 Aqueous One
Experimental: as §1
In one embodiment, the cell-based assay may be carried out as provided herein. On day 0, cells were seeded at 20,000 cells per well in 100 μL of media into individual wells of a 96-well tissue culture plate. The next day, compounds were diluted to twice the desired final concentration and added in 100 μL of media for a final volume of 200 μL. Standard solutions for each compound were prepared at 1000× concentration in DMSO. The highest concentration was 30 mM. […] Cells were placed back in the incubator, and the absorbance at 490 nm was read after 2-3 hours. […] “Percent Viability” was determined by subtracting the average background value (media only) and expressed as a ratio to the average value obtained from cells treated with only DMSO.

[4] = PK study and oral bioavailability, mouse; type: in vivo; conditions: plasma 0 to 6 h
[5] = PK study and oral bioavailability, rat; type: in vivo; conditions: plasma 0 to 6 h
[6] = system: m7GpppN-capped luciferase mRNA reporter; assay: In vitro HeLa cell extract translation system, translation inhibition; type: biochemical; conditions: concentration not given
Experimental: In one embodiment, the compounds provided herein were assayed for translation inhibition activity using an in vitro HeLa cell extract translation system with an m7GpppN-capped luciferase mRNA reporter.

[7] = IV 5 mg/kg, read-out: IV Administration (5 mg/kg) C0
[8] = IV 5 mg/kg, read-out: IV Administration (5 mg/kg) T½ (converted)
[9] = PO 25 mg/kg, read-out: PO Administration (25 mg/kg) C0

SMILES	IC50 [1] [µM]	other results
Cc1cc(C)c(S(=O)(=O)Nc2cc(C(F)(F)F)cc(C(F)(F)F)c2)c(C)c1 [Reference compound 4]	17	–
Cc1c(NS(=O)(=O)c2c(C(C)C)cc(C(C)C)cc2C(C)C)cc(C(F)(F)F)cc1C(F)(F)F [Compound 2, N-[2-Methyl-3,5-bis(trifluoromethyl)phenyl]-2,4,6-triisopropyl-benzenesulfonamide]	2	IC50 [2]: 6 µM; IC50 [3]: 5 µM; C0 [4, 7]: 53700 ng/mL; half-life [4, 8]: 174 min; C0 [4, 9]: 3610 ng/mL; half-life ([4]; PO 25 mg/kg, read-out: PO Administration (25 mg/kg) T½ (converted)): 144 min; C0 [5, 7]: 68900 ng/mL; half-life [5, 8]: 96 min; C0 [5, 9]: 27600 ng/mL; half-life ([5]; PO 25 mg/kg, read-out: PO Administration (25 mg/kg) T½): > 360 min
C[C@@H]1C[C@@H]([C@H](O)CC2CC(=O)NC(=O)C2)C(=O)[C@@H](C)C1 [cycloheximide, reference compound]	–	inhibition of luciferase activity (comparator) [6]: 99.3%
Cc1c(C)c(C)c(S(=O)(=O)Nc2cc(C(F)(F)F)cc(C(F)(F)F)c2)c(C)c1C [Reference compound 5]	> 20	–
CC(C)c1cc(C(C)C)c(S(=O)(=O)Nc2ccc(Br)cc2)c(C(C)C)c1 [Reference compound 7]	14	–
Cc1cc(C(C)(C)C)cc(C)c1S(=O)(=O)Nc1cc(C(F)(F)F)cc(C(F)(F)F)c1C [Compound 9, 4-Tert-butyl-2,6-dimethyl-N-[2-methyl-3,5-bis(trifluoromethyl)phenyl]benzenesulfonamide]	5	–
CC(C)c1cc(C(C)C)c(S(=O)(=O)Nc2cccc(F)c2)c(C(C)C)c1 [Reference compound 9]	> 20	–
N#Cc1ccc(NS(=O)(=O)c2cc(C(F)(F)F)cc(C(F)(F)F)c2)cc1Cl [Reference compound 3]	> 20	–
O=S(=O)(Nc1cc(C(F)(F)F)cc(C(F)(F)F)c1)c1cc(C(F)(F)F)cc(C(F)(F)F)c1 [Reference compound 1]	> 20	–
Cc1cc(C)c(NS(=O)(=O)c2c(C(C)C)cc(C(C)C)cc2C(C)C)c(C)c1 [Reference compound 10]	> 20	–
Cc1cc(C(C)(C)C)cc(C)c1S(=O)(=O)Nc1cc(C(F)(F)F)cc(C(F)(F)F)c1 [Compound 6, N-[3,5-Bis(trifluoromethyl)phenyl]-4-tert-butyl-2,6-dimethyl-benzenesulfonamide]	7	–
CC(C)c1cc(C(C)C)c(NS(=O)(=O)c2cc(C(F)(F)F)cc(C(F)(F)F)c2)c(C(C)C)c1 [Compound 4, 3,5-Bis(trifluoromethyl)-N-(2,4,6-triisopropylphenyl)benzenesulfonamide]	12	–
CC(C)c1cc(C(C)C)c(S(=O)(=O)Nc2cc(C(F)(F)F)cc(C(F)(F)F)c2Br)c(C(C)C)c1 [Compound 5, N-[2-Bromo-3,5-bis(trifluoromethyl)phenyl]-2,4,6-triisopropyl-benzenesulfonamide]	5	–
O=S(=O)(Nc1cc(C(F)(F)F)cc(C(F)(F)F)c1)c1c(Cl)cccc1Cl [Reference compound 2]	10	–
CC(C)c1cc(C(C)C)c(S(=O)(=O)Nc2ccccc2F)c(C(C)C)c1 [Reference compound 11]	> 20	–

Continued, in another order:

IC50 [1] [µM]	SMILES	other results
> 20	CC(=O)Nc1ccc(S(=O)(=O)Nc2cc(C(F)(F)F)cc(C(F)(F)F)c2)cc1 [Reference compound 13]	–
1.5	CCc1cccc(CC)c1S(=O)(=O)Nc1cc(C(F)(F)F)cc(C(F)(F)F)c1 [Compound 8, N-[3,5-Bis(trifluoromethyl)phenyl]-2,6-diethyl-benzenesulfonamide]	–
19	Cc1c(Cl)cccc1NS(=O)(=O)c1c(C(C)C)cc(C(C)C)cc1C(C)C [Reference compound 12]	–
3	Cc1cc(C(C)(C)C)cc(C)c1S(=O)(=O)Nc1cc(C(F)(F)F)cc(C(F)(F)F)c1Cl [Compound 10, 4-Tert-butyl-N-[2-chloro-3,5-bis(trifluoromethyl)phenyl]-2,6-dimethyl-benzenesulfonamide]	–
4.5	CC(C)c1cc(C(C)C)c(S(=O)(=O)Nc2cc(C(F)(F)F)cc(C(F)(F)F)c2Cl)c(C(C)C)c1 [Compound 3, N-[2-Chloro-3,5-bis(trifluoromethyl)phenyl]-2,4,6-triisopropyl-benzenesulfonamide]	IC50 [2]: 3 µM
> 20	COc1ccc(OC)c(S(=O)(=O)Nc2cc(C(F)(F)F)cc(C(F)(F)F)c2)c1 [Reference compound 6]	–
2	CCc1cccc(CC)c1S(=O)(=O)Nc1cc(C(F)(F)F)cc(C(F)(F)F)c1C [Compound 7, 2,6-Diethyl-N-[2-methyl-3,5-bis(trifluoromethyl)phenyl]benzenesulfonamide]	–
> 20	Cc1ccc(C)c(NS(=O)(=O)c2c(C(C)C)cc(C(C)C)cc2C(C)C)c1 [Reference compound 8]	–
